Experimental data published in patent US6986881B1, “Identification of compounds that modify transcriptional responses to hypoxia” (Dana-Farber Cancer Institute, Inc., priority 1999, dated 2006).
No end group written: not given here.

Tests used:
[1] = tested on: Hep3B cells, Epo-luciferase reporter; test: Epo-luciferase hypoxia-inducible reporter assay; type: cell-based; settings: overproduction of polypeptide; 1% oxygen 18 hours
Description: FIG. 2A is a graph showing the results of luciferase and β-galactosidase assays, in which Hep3B cells were cotransfected with an Epo-luciferase reporter (100 ng), pCMV-LacZ (100 ng), and the indicated expression plasmids (300 ng). Cells were subsequently exposed to either ambient (Normoxia, stippled bars) or 1% (Hypoxia, solid bars) oxygen for 18 hours prior to assay. The results are expressed as corrected relative light units (RLU, mean of three independent transfections ±S.D.).
(§1) Reporter assays. Luciferase and β-galactosidase assays were performed as previously described (Bhattacharya et al., Genes Dev. 13:64–75, 1999). In all cases, luciferase activity was corrected for β-galactosidase activity as an internal control for transfection efficiency and global changes in transcriptional activity. Results are expressed as corrected relative light units (RLU). For each reporter experiment, at least two independent experiments were performed.
(§2) Hypoxia. Hypoxia was achieved by incubating cells in a humidified environment at 37° C. in a Cellstar three gas incubator (Harris) maintained at 10% CO2 and 1% O2. Accurate O2 and CO2 regulation was periodically verified with a Fryrite gas analyzer (Bacharach).

[2] = target: T1, GST-CH1 (amino acids 302–443 of p300) (Homo sapiens, UniProt Q09472); test: In vitro protein binding assay of IVT Gal4-fused HIF-1α fragments to GST-CH1; settings: Gal4 fusion, translated in vitro
T1 construct: made in house; host or cells: bacteria
From the text: One fifth of the total IVT product used for each binding assay is indicated (Input), along with the amount bound by GST-CH1 (Bound).
The detailed structural requirements for p300/CBP binding to HIF-1α were mapped by in vitro assays utilizing a series of GST-fused deletion mutants centered around the CH1 domain of p300, the primary HIF-1α interacting unit of that protein (Arany et al., Proc. Natl. Acad. Sci. U.S.A. 93:12969–12973, 1996; Kallio et al., EMBO J. 17:6573–6586, 1998). These mutant fusion proteins were assayed for binding to full length, iii vitro translated HIF-1α a zinc-dependent process (FIG. 1B). […] To map the minimal p300-binding domain of HIF-1α, a series of Gal4-fused truncation mutants of the C-terminus were generated. These Gal4 fusion proteins were translated in vitro and probed for their ability to bind to GST-CH1 (amino acids 302–443).
In vitro translation and in vitro protein binding assays. Except where noted, all reagents were from Sigma. In vitro transcription/translation (IVT) was performed in the presence of ^35S-methionine (NEN) using T3 or T7 polymerase coupled with rabbit reticulocyte lysates (TNT, Promega) according to the manufacturer's instructions. GST fusion proteins were produced in, and purified from, bacteria, and binding of IVT proteins was performed as previously described (Grossman et al., Mol. Cell. 2:405–415, 1998). […]

HepG2 cells = test: Cell death by flow cytometry (Annexin V staining and vital dye exclusion); type: cell-based; settings: for cell survival: versus Gal4 alone
Description: FIG. 2D is a graph showing the levels of cell death in an experiment in which HepG2 cells were infected at an MOI of 5 with retrovirus encoding the indicated Gal4 fusion proteins. Cells were exposed to either ambient or 1% oxygen for 36 hours, and then assayed for cell death by flow cytometric analysis using Annexin V staining and vital dye exclusion. The results are expressed as the mean of three independent experiments ±S.E.M. The asterisk denotes statistical significance (p=0.05) in comparison to controls.
as §2
(§3) Cell culture and retroviral infection. Tumor cell lines were obtained from the ATCC, and were cultured in DMEM supplemented with 10% FBS, penicillin, streptomycin, and L-glutamine (Gibco-BRL). Cells in logarithmic growth phase were serially infected 12 hours apart with VSV-G pseudotyped pMMP-Gal4 retroviruses to achieve a final MOI of 5 or 10, depending on the experiment. […] For pBABE-puro-VP16 or pBABE-puro-HIF-VP16, cells were infected at an MOI of <1 and selected with puromycin (2 μg/ml) for 4 days. Cells were allowed to recover for 1 day and then infected at an MOI of 5 with pMMP-Gal4 retroviruses.
(§4) Immunoblot, ribonzuclease protection, and cell death assays. Immunoblot analyses for Gal4 (RK5C1, Santa Cruz Biotechnology), p53 (DO-1, Oncogene Research), and HIF-1α (OZ15 (Arany et al., Proc. Natl. Acad. Sci. U.S.A. 93:12969–12973, 1996)) were performed using standard techniques (Ausubel et al., Eds., Current Protocols in Molecular Biology (Wiley-Interscience, New York, 1988)). Total RNA was isolated (RNeasy, Qiagen), and ribonuclease protection assays performed utilizing a multiprobe human angiogenesis kit (RiboQuant, Pharmingen) according to the manufacturer's instructions. Cell death was measured by staining with anti-Annexin V antibody (Pharmingen) and 7-amino-actinomycin D (Pharmingen), and analyzed by flow cytometry according to the manufacturer's instructions.

HCT116 cells = test: Nude mouse xenograft tumor model, HCT116; type: in vivo, nude mice; settings: for histological examination of the injection site / tumor: HCT116, 3 weeks of growth
From the text: FIG. 3A is a graph showing the in vivo effect of TADC expression. HCT116 cells were infected at an MOI of 5 with retroviruses encoding Gal4 alone (circle), Gal4 fused with mutant TAD-C polypeptide (Gal4-MUT, square) or with wild type TAD-C polypeptide (triangle). A total of 4×10^6 cells were implanted subcutaneously into nude mice. The results are expressed as the mean ±S.D. of 8–10 independent tumors.
FIGS. 4A and 4B are a series of photographs showing that the in vivo effect of TAD-C expression can be rescued by a CH1-independent HIF-1α allele. Tumors arising from HCT116 cells infected with retrovirus encoding Gal4 fused with mutant (MUT) or wild type TAD-C polypeptide at an MOI of 5 were excised after 3 weeks of growth. Paraffin sections were stained with H&E or immunostained for Gal4 or CD31/PECAM. The subcutaneous tissue (SQ), tumor (Tum), and necrotic areas (Nec) are indicated.
FIG. 4C is a graph showing the results of experiments in which HCT116 cells were infected with either pBABE-puro-VP16 (VP16) or pBABE-puro-HIF-VP16 (HIFVP), and selected with puromycin. These cells were then infected with retrovirus encoding either Gal4-MUT or Gal4-TADC at an MOI of 5. A total of 6×10^6 cells were implanted in nude mice. Results are the mean of 8 independent tumors ±S.D.
as §3
Xenograft tumor model. Nude mice (Taconic) were obtained at 6–8 weeks of age and allowed to acclimate for 1 week prior to tumor implantation. Tumor cells were allowed to recover for at least 48 hours after retroviral infection prior to implantation into nude mice. The indicated number of tumor cells was injected subcutaneously and bilaterally into the flanks of mice. Tumors were measured with calipers, and tumor volume was calculated as 0.5×L×W^2. For each cell line, at least two independent experiments were performed. Where indicated, tumors were excised and fixed in 4% paraformaldehyde in phosphate buffered saline or minced and lysed in RIPA/300 buffer (50 mM Tris-HCl (pH 8.0), 300 mM NaCl, 1% NP40, 0.5% DOC, 0.1% SDS, 1 mM DTT, protease inhibitors). Immunostaining with anti-Gal4 (IKE, Santa Cruz Biotechnology) or anti-CD31 (MEC13.3, Pharmingen) was performed using the Vectastain ABC Elite system (Vector) according to the manufacturer's instructions.

RAR = test: Gal4-luciferase reporter, p300/CBP dependent transactivation (Gal4-RAR); type: cell-based; settings: TAD-C polypeptide overexpression, Hep3B cells
Description: (§5) FIG. 2B is a graph showing the effect of TAD-C expression on p300/CBP dependent transactivation. Hep3B cells were cotransfected with the indicated thioredoxin-constrained fusion protein expression plasmids (300 ng), the indicated Gal4-fusion proteins (20 ng), Gal4-luciferase reporter (100 ng), and pCMV-LacZ (50 ng). Where indicated, cells were exposed to hypoxia for 18 hours. The results are expressed as corrected RLU (mean of three independent transfections ±S.D.).
as §1

HIF-1α = test: Immunoblot for HIF-1α abundance; type: cell-based; settings: hypoxic conditions
Description: as §4

SRC-1 = test: Gal4-luciferase reporter, p300/CBP dependent transactivation (Gal4-SRC1); type: cell-based; settings: TAD-C polypeptide overexpression, Hep3B cells
Description: as §5, §1

STAT2 = test: Gal4-luciferase reporter, p300/CBP dependent transactivation (Gal4-STAT2); type: cell-based; settings: TAD-C polypeptide overexpression, Hep3B cells
Description: as §5, §1

SREBP2 = test: Gal4-luciferase reporter, p300/CBP dependent transactivation (Gal4-SREBP2); type: cell-based; settings: TAD-C polypeptide overexpression, Hep3B cells
Description: as §5, §1

MDA-MB435S cells = test: Nude mouse xenograft tumor model, MDA-MB435S; type: in vivo, nude mice; settings: MDA-MB435S cells expressing the polypeptide, versus Gal4 alone or Gal4-mutant
Description: FIG. 3B is a graph showing results of the experiments described in reference to FIG. 3A for MDA-MB435S cells.
as §3
Xenograft tumor model. Nude mice (Taconic) were obtained at 6–8 weeks of age and allowed to acclimate for 1 week prior to tumor implantation. Tumor cells were allowed to recover for at least 48 hours after retroviral infection prior to implantation into nude mice. The indicated number of tumor cells was injected subcutaneously and bilaterally into the flanks of mice. Tumors were measured with calipers, and tumor volume was calculated as 0.5×L×W^2. For each cell line, at least two independent experiments were performed. […]

VEGF mRNA in HepG2 cells = test: Ribonuclease protection assay for VEGF mRNA; type: cell-based; settings: HepG2, retrovirus MOI 10, both normoxic and hypoxic conditions
Description: In this assay, HepG2 cells were infected at an MOI of 10 with retroviruses encoding Gal4 alone or Gal4 fused with wild type or mutant (MUT) TAD-C polypeptide. Cells were exposed to either ambient or 1% (Hypoxia) oxygen for 18 hours prior to preparation of total RNA.
To facilitate expression of the relevant TAD-C and mutant polypeptides, VSV-G pseudotyped retroviruses were engineered to express Gal14 carrier protein alone or Gal4 fused to either wild type or mutant TAD-C polypeptide. HepG2 cells were infected with these retroviruses at a multiplicity of infection (MOI) of 10, exposed to either normal or hypoxic conditions, and VEGF mRNA levels were determined by a ribonuclease protection assay. Equivalent expression of Gal4 and the Gal4 fused polypeptides was regularly achieved in this and related experiments (for example, see FIG. 3A, inset). […] The overall abundance of HIF-1α under hypoxic conditions was not altered by introduction of TAD-C.
Hypoxia. Hypoxia was achieved by incubating cells in a humidified environment at 37° C. in a Cellstar three gas incubator (Harris) maintained at 10% CO2 and 1% O2. […]
Immunoblot, ribonzuclease protection, and cell death assays. […] Cell death was measured by staining with anti-Annexin V antibody (Pharmingen) and 7-amino-actinomycin D (Pharmingen), and analyzed by flow cytometry according to the manufacturer's instructions.

[3] = target: HIF-1α/p300 CH1 interaction (Homo sapiens, UniProt Q09472); settings: cited from earlier work
Sequence of HIF-1α/p300 CH1 interaction (Q09472 whole entry): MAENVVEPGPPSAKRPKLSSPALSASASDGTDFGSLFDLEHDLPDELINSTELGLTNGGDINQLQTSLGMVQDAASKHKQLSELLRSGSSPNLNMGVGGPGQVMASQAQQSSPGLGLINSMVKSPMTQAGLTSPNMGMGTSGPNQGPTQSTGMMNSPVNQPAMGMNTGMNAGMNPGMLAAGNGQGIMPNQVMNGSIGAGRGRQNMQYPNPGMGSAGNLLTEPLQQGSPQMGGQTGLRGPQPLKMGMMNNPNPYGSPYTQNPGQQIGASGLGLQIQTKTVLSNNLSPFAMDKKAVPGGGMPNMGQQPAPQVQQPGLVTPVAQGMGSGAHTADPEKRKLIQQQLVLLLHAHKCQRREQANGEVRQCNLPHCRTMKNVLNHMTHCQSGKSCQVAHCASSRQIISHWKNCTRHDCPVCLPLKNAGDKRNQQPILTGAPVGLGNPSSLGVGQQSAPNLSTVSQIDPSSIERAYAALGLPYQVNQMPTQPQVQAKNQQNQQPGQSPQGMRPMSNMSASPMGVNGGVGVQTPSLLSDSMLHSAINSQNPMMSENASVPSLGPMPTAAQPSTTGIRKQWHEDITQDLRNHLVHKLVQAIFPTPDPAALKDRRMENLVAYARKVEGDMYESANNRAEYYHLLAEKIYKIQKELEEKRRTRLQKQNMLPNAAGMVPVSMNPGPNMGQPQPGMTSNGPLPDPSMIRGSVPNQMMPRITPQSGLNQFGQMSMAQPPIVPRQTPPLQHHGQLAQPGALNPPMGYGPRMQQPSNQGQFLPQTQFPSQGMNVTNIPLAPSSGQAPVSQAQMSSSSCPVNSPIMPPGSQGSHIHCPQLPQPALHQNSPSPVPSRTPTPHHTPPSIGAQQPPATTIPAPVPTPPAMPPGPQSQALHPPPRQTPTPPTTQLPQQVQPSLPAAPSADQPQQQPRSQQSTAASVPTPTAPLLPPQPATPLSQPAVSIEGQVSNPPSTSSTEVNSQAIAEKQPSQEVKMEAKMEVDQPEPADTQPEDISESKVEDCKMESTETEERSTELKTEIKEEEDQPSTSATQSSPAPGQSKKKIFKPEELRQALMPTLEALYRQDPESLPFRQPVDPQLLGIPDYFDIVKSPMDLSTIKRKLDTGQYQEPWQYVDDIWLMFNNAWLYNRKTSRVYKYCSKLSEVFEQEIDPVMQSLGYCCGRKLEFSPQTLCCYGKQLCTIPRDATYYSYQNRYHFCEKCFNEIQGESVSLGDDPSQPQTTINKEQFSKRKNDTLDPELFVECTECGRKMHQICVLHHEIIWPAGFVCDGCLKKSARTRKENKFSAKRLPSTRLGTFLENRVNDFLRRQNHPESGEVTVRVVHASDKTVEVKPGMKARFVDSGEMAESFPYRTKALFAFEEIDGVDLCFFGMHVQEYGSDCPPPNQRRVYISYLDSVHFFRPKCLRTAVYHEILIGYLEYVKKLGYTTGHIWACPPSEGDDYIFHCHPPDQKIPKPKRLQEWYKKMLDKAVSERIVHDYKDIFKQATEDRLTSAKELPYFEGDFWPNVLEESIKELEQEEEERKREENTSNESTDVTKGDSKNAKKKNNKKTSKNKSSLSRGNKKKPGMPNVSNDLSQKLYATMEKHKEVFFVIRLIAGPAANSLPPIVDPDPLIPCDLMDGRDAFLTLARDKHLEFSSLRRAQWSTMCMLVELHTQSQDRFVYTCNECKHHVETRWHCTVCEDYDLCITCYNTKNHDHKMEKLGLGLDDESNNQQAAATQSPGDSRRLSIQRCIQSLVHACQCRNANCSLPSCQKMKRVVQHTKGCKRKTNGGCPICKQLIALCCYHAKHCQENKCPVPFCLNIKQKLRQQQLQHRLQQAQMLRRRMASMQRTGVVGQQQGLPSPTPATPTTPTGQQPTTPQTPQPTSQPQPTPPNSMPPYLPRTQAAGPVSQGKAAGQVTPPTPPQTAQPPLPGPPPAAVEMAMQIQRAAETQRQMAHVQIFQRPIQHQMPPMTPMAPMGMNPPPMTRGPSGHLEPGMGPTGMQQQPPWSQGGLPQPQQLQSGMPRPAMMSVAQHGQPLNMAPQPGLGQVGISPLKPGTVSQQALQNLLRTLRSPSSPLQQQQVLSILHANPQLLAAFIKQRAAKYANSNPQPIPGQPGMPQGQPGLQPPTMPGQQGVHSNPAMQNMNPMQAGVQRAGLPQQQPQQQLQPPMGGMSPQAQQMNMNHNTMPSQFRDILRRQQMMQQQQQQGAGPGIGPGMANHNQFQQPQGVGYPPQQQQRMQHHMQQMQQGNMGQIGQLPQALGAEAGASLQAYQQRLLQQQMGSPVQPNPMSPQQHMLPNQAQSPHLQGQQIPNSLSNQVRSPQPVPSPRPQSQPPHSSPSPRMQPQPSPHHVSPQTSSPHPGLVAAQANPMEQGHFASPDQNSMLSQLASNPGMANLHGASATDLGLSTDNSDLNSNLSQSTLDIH

T1 sequence (Q09472 302-443): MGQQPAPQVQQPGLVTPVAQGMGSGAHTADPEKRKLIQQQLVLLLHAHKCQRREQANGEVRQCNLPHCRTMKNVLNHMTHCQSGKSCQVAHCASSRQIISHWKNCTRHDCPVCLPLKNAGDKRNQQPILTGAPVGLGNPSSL

mutant TAD-C polypeptide: eight residue truncated mutant of TAD-C (amino acids 786–818 of HIF-1α), unable to bind GST-CH1 (SMDESGLPQLTSYDCEVNAPIQGSRNLLQGEEL; also: fused to Gal4; UniProt Q16665 786-818, looked up, fragment)
hypoxia-inducible reporter activity [1]: failed to exert a dominant-negative effect
binding to GST-CH1 [2]: unable to bind
cell survival (HepG2 cells; HepG2, normoxic conditions): essentially the same
histological examination of the injection site / tumor (HCT116 cells): small areas of necrosis, but vast areas of viable tumor

TAD-C polypeptide: wild type TAD-C polypeptide (amino acids 786–826 of HIF-1α), expressed fused to Gal4 or thioredoxin-constrained
effect on RAR transcriptional activity (RAR): no effect
overall abundance of HIF-1α (HIF-1α): not altered
hypoxia-inducible reporter activity [1]: attenuation
binding to GST-CH1 [2]: necessary and sufficient for binding
effect on SRC-1 transcriptional activity (SRC-1): no effect
cell death (HepG2 cells; HepG2, hypoxic conditions (1% oxygen, 36 hours), versus Gal4 alone or mutant): slightly, but significantly, increased
cell growth (HepG2 cells; HepG2, normoxic conditions): not affected
cell survival (HepG2 cells; HepG2, normoxic conditions): essentially the same
transcriptional activity of STAT2 (STAT2): inhibit
effect on SREBP2 transcriptional activity (SREBP2): no effect
tumor growth (MDA-MB435S cells): significantly and reproducibly attenuated
histological examination of the injection site / tumor (HCT116 cells): large areas of central necrosis with a small rim of viable tumor cells
tumor growth (HCT116 cells; HCT116, coexpression of HIF-VP16, TAD-C versus mutant polypeptide): identical tumor growth
tumor growth (HCT116 cells; HCT116, coexpression of unfused VP16, versus mutant polypeptide): attenuated
tumor growth (HCT116 cells; HCT116 cells expressing the polypeptide, versus Gal4 alone or Gal4-mutant): significantly and reproducibly attenuated
VEGF mRNA abundance (VEGF mRNA in HepG2 cells): reproducibly diminished

CH1: polypeptide corresponding to the minimal HIF-1α binding domain of p300 (CH1 domain, amino acids 302–418)
hypoxia-inducible reporter activity [1]: attenuation

B1: p35srj: protein with negative regulatory function on the HIF-1 pathway; binds p300/CBP, blocks HIF-1α/p300 CH1 interaction (protein, UniProt Q99967 1-270, looked up)
Cbp/p300-interacting …: MADHMMAMNHGRFPDGTNGLHHHPAHRMGMGQFPSPHHHQQQQPQHAFNALMGEHIHYGAGNMNATSGIRHAMGPGTVNGGHPPSALAPAARFNNSQFMGPPVASQGGSLPASMQLQKLNNQYFNHHPYPHNHYMPDLHPAAGHQMNGTNQHFRDCNPKHSGGSSTPGGSGGSSTPGGSGSSSGGGAGSSNSGGGSGSGNMPASVAHVPAAMLPPNVIDTDFIDEEVLMSLVIEMGLDRIKELPELWLGQNEFDFMTDFVCKQQPSRVSC
HIF-1 transactivation [3]: inhibits
